Consider 1 compound from ChEMBL document CHEMBL3817727, “Fluorinated thiazolidinols cause cell death in A549 lung cancer cells via PI3K/AKT/mTOR and MAPK/ERK signalling pathways” (Medchemcomm, 2016).

The structures appear in SMILES notation.

Assay [1] relates to MDA-MB-231. Kind of assay: Cytotoxicity against human MDA-MB-231 cells assessed as reduction in cell viability after 24 hrs by MTT assay. The note with it: MDA-MB-231, 24 h. The assay is classed as functional, cell-based.
In assay [2] the test system is A549. Kind of assay: Cytotoxicity against human A549 cells assessed as reduction in cell viability after 24 hrs by MTT assay. The assay is classed as functional, cell-based. The note with it: A549, 24 h.
Assay [3] relates to A549. In words: Cell cycle arrest in human A549 cells assessed as accumulation at G2/M phase at 10 uM after 24 hrs by propidium iodide staining based flow cytometry (reference value: 21.58%). Type of assay: functional.
The subject of assay [4] is A549. In words: Cell cycle arrest in human A549 cells assessed as accumulation at S phase at 10 uM after 24 hrs by propidium iodide staining based flow cytometry (reference value: 8.85%). The assay is classed as functional.
Assay [5] relates to A549. In words: Cell cycle arrest in human A549 cells assessed as accumulation at G0/G1 phase at 10 uM after 24 hrs by propidium iodide staining based flow cytometry (reference value: 69.5%). Type of assay: functional.
For assay [6], the system named is MCF7. Kind of assay: Cytotoxicity against human MCF7 cells assessed as reduction in cell viability after 24 hrs by MTT assay. To be noted: MCF7, 24 h. Type of assay: functional, cell-based.
Assay [7] concerns HeLa. Kind of assay: Cytotoxicity against human HeLa cells assessed as reduction in cell viability after 24 hrs by MTT assay. Type of assay: functional, cell-based.
Assay [8] deals with A549. Kind of assay: Cell cycle arrest in human A549 cells assessed as accumulation at subG1 phase at 10 uM after 24 hrs by propidium iodide staining based flow cytometry (reference value: 1.11%). The assay is classed as functional.

Take `O=c1cc(N2CCOCC2)oc2c(-c3ccccc3)cccc12` [LY-294002]: the IC50 in assay [1] came to 9.7 µM; in assay [2], 17.7 µM; in assay [6], 29.1 µM; in assay [7], 20.5 µM. The Activity in assay [3] amounted to 9.24%; in assay [4], 3.24%; in assay [5], 82.95%; in assay [8], 5.15%.
